Results as given in patent US11499185B2, “Nucleic acid sequencing methods and systems” (OMNIOME, INC., priority 2015, dated 2022).

Biological target: T1, HIV reverse transcriptase (Human immunodeficiency virus type 1 group M subtype B, UniProt P04585)
T1 construct: Recombinant purified HIV reverse transcriptase (HIV RT); purchased Worthington Biochemical Corp (Lakewood, N.J.)
Assay: Binding of HIV RT to biosensor coated with primer-template (Octet QK), with dNTP and NNRTI
Design: species or system HIV-1
Experimental: Template oligonucleotide Btn-4460-45095 and primer oligonucleotide 4496-4509AS were synthesized and analyzed (liquid chromatography-mass spectrometry (LC-MS) and electrospray ionization (ESI)) by Integrated DNA Technologies (Coralville, Iowa). Oligonucleotides were prepared in TE Buffer (10 mM Tris pH 8.0, 0.1 mM EDTA) to 100 μM. Primer and template oligonucleotides were combined (10 μM each strand) in a tube containing Annealing Buffer (10 mM Tris pH 8.0, 0.1 mM EDTA, 80 mM KCl). The tube containing primer-template solution was loaded onto a dry heat block (95° C. for 5 min), and the block was transferred to the bench top to anneal the strands by gradual cooling to ambient temperature. Uncompetitive NNRTI compounds (Pitta et al., J. Enzyme Inhib. Med. Chem. 28(10):113-22 (2013)), which is incorporated by reference herein in its entirety), were from Epigen Biosciences, Inc. (San Diego, Calif.). NNRTI compounds 7 (3-4-chloro-benzo[d]thiazol-2yl)-2-(2-chloro-6-fluorophenyl)thiazolidin-4-one) and 18 (3-(6-ethoxy-benzo[d]thiazol-2-yl)-2-(2-chloro-6-fluorophenyl)thiazolidin-4-one) were dissolved in dimethylsulfoxide (DMSO) to concentrations of 25.0 mM and 15.0 mM, respectively. Recombinant purified HIV reverse transcriptase (HIV RT) was from Worthington Biochemical Corp (Lakewood, N.J.). Ultra-pure bovine serum albumin (BSA) was from Ambion (Foster City, Calif.). All reagents and solutions were molecular biology grade.
Primer-template duplex was diluted ([…]) into Annealing Buffer. Immediately before use, HIV Reverse Transcriptase was pre-diluted into Enzyme Diluent (50 mM Tris, pH 8.0, 8 mM MgCl2). Binding buffer (50 mM Tris, pH 8.0, 160 mM KCl, 0.5 mM EDTA, 11 mM MgCl2, 0.3% (v/v) Triton X-100, 5.3 mM dithiothreitol (DTT), 100 μg/mL bovine serum albumin (BSA), 100 μM dNTP (dATP, dTTP, dGTP or dCTP), 100 nM HIV RT). NNRTI compounds were pre-diluted with DMSO immediately before being spiked into Binding Buffer. Reaction Buffer was Binding Buffer without NNRTI, dNTP or HIV RT enzyme. Buffer containing Primer-Template (PT), PT Wash Buffer, Binding buffer containing one dNTP, and Reaction Buffer were loaded (200 μL/well) into a Greiner 96-well black microplate (Sigma-Aldrich, St. Louis, Mo.; catalog number M9685). Streptavidin (SA) Biosensors (Pall ForteBio Corp., Menlo Park, Calif.; catalog number 18-5019) were re-hydrated in Annealing Buffer for approximately 10 minutes before use. The Octet QK biosensor system (Pall ForteBio Corp., Menlo Park, Calif.) was set for 30° C. operation and was programmed to coat the biosensors with Primer-Template and wash away unbound Primer-Template with PT Wash Buffer. Biosensors were transferred to Binding Buffer containing HIV RT+dCTP±NNRTI (association phase) followed by Reaction Buffer (dCTP incorporation and dissociation phase). Similarly, biosensors were transferred cyclically to solutions containing individual deoxyribonucleoside triphosphates (dATP, dGTP, dCTP or dTTP) as indicated. Cycles of binding and incorporation were repeated multiple times.
Data were imported into Microsoft Excel and Prism software (GraphPad Software, San Diego, Calif.) for display. The progress of binding and dissociation reactions was smoothed either by averaging within a 19.4-second window or by Prism software (19.4-second window and 6th-order smoothing polynomial).

Compound	binding to biosensor coated with primer-template in the association phase (HIV RT + incorrect nucleotides dCTP and dATP (cycles 7 and 8) + NNRTI 40 μM, FIG. 7A)	binding to biosensor coated with primer-template in the association phase (HIV reverse transcriptase + correct dNTP + NNRTI 40 μM, ALK primer-template, FIG. 7A)	binding to biosensor coated with primer-template in the association phase (control: HIV RT with 40 μM NNRTI, no dNTP, FIG. 7A)	binding to biosensor coated with primer-template in the association phase (HIV RT + incorrect nucleotide dTTP (cycle 4) + NNRTI 80 μM, FIG. 8)	binding to biosensor coated with primer-template in the association phase (HIV reverse transcriptase + correct dNTP + NNRTI 80 μM, ALK primer-template, FIG. 8)	binding to biosensor coated with primer-template in the association phase (control: HIV RT with 80 μM NNRTI, no dNTP, FIG. 8)
O=C1CSC(c2c(F)cccc2Cl)N1c1nc2c(Cl)cccc2s1 (stereo not drawn) [NNRTI compound 7]	did not produce a binding peak	distinct peaks for binding	did not produce appreciable binding peaks			
CCOc1ccc2nc(N3C(=O)CSC3c3c(F)cccc3Cl)sc2c1 (stereo not drawn) [NNRTI compound 18, 3-(6-ethoxy-benzo[d]thiazol-2-yl)-2-(2-chloro-6-fluorophenyl)thiazolidin-4-one]				did not show a binding peak	distinct peaks for binding	did not produce appreciable binding peaks
